# Results from US8071576B2, “Method of preventing or treating benign gynaecological disorders” (Pantarhei Bioscience B.V., priority 2001, dated 2011).
# How the values were obtained:
# endometrium [1] = assay: McPhail test: endometrial differentiation in estradiol-pretreated rabbits; assay type: in vivo; conditions: rabbits pretreated with 5 μg 17β-estradiol s.c. for 6 days; levonorgestrel 8 μg/day oral and/or testosterone 20 mg/day s.c. for 5 days; scores 0-4
# Experimental: The effects on endometrium of the progestogen levonorgestrel and the androgen testosterone were determined in rabbits according to the method of McPhail (Mc Phail M. K. “The assay of progestin” J Physiol (1934), 83, 145-156). Four groups of each 5 rabbits were pretreated with daily subcutaneous dosages of 5 μg 17β-estradiol for 6 days.
# After pretreatment, 3 groups either received levonorgestrel at an oral dose of 8 μg per day for 5 days, testosterone in a subcutaneous dose of 20 mg per day for 5 days, or levonorgestrel and testosterone together in the aforementioned routes and doses for 5 days. The fourth group was used as the negative control.
# Autopsy was performed after the treatment period and the uterus was weighed and histological sections were prepared from each uterine horn and these were microscopically evaluated according to the McPhail Index (scores 0-4; 0=no differentiation; 4=maximal differentiation).
# androgen receptors = target: T1, androgen receptors (Homo sapiens, UniProt P10275); conditions: precursors per se, in the female body; cited from earlier work
# T1 sequence (P10275 1-920): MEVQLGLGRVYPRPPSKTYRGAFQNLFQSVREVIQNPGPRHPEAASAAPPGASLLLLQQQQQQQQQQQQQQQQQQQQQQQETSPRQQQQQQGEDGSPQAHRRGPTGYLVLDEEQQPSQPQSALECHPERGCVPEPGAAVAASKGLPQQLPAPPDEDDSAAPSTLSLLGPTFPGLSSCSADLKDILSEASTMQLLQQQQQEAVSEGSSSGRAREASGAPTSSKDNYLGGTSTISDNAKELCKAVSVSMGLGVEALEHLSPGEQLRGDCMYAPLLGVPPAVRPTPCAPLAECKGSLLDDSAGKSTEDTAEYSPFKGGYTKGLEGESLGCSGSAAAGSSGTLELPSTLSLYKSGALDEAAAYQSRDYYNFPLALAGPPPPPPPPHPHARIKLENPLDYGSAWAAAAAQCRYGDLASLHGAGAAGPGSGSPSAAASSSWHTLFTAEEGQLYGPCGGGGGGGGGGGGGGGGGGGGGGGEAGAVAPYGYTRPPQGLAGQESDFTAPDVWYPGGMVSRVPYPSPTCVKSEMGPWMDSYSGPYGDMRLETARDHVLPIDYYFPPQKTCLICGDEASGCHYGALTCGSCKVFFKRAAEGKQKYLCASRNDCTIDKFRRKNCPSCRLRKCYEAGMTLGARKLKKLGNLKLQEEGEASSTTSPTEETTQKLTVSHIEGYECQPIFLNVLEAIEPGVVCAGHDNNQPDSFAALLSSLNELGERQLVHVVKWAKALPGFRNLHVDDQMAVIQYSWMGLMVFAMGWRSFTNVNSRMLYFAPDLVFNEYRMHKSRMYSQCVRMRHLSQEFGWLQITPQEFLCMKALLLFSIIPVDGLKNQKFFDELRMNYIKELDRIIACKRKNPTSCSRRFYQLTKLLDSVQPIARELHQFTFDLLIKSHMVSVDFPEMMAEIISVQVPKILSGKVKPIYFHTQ
# endometrium [2] = conditions: DHEA applied on the dorsal skin of ovariectomized rats, all time intervals; cited from earlier work
# [3] = Clinical study: 17β-estradiol/norethisterone acetate with or without DHEA (Example 3); assay type: in vivo; conditions: 50 mg DHEA daily oral added to 3 mg 17β-estradiol and 1.5 mg norethisterone acetate for 104 days, versus women not receiving DHEA
# Experimental: A clinical study is conducted in 100 healthy young women. […] Vaginal spotting and bleeding is scored daily by the participants in a diary. The effects on general well being are scored at baseline and at each study visit (every 5 weeks during study drug administration) using the psychometric rating scale described in example 2.
# Ovulation inhibition is investigated by analysing pregnanediol samples twice a week during 4 weeks between week 7 and 14. In addition, endocrine measurements are performed in a subgroup of the participants (17β-estradiol, progesterone, total testosterone, LH, FSH and SHBG).
# [4] = Clinical study: ethinyl estradiol/levonorgestrel with or without DHEA (Example 2); assay type: in vivo; conditions: 50 mg DHEA daily oral added to ethinyl estradiol/levonorgestrel for 104 days, versus women not receiving DHEA
# Experimental: A clinical study is conducted in 200 healthy young women. […] Vaginal spotting and bleeding is scored daily by the participants in a diary and the effects on general well being are scored at baseline and at each study visit (every 5 weeks during study drug administration) on a psychometric rating scale. The psychometric rating scale used is especially suited for identifying differences in a population of healthy young women. The scale is a 24-item (placid, sleepy, jittery, intense, lacking confidence, energetic, sensitive, tired, well-balanced, at-rest, drowsy, fearful, lively, sickly, in a good mood, irritable, lethargic, quiet, full-of-pep, optimistic, moody, active, tense, sad), 4-point (yes, definitely; yes, a bit; no, in fact not; no, definitely not) scale to be scored by the person themself. In addition, endocrine measurements are performed in a subgroup of the participants (17β-estradiol, progesterone, total testosterone, LH, FSH and SHBG).
structure (smiles),measurement,setting,value
C#C[C@]1(O)CC[C@H]2[C@@H]3CCC4=CC(=O)CC[C@@H]4[C@H]3CC[C@@]21CC [levonorgestrel],McPhail index,endometrium [1],2.1±0.4
C[C@]12CC[C@H]3[C@@H](CCC4=CC(=O)CC[C@@]43C)[C@@H]1CC[C@@H]2O [testosterone],McPhail index,endometrium [1],2.9±0.1
CCCCCCCCCCC(=O)O[C@H]1CC[C@H]2[C@@H]3CCC4=CC(=O)CC[C@]4(C)[C@H]3CC[C@]12C [testosterone undecanoate],affinity for the androgen receptors,androgen receptors,virtually no affinity
"C[C@]12CC[C@H](O)CC1=CC[C@@H]1[C@@H]2CC[C@]2(C)C(=O)CC[C@@H]12 [DHEA, dehydroepiandrosterone]",state of the endometrium during DHEA treatment,endometrium [2],remained atrophic
same,psychometric scores on items in the domain of energy,[3],generally better scores
same,side effects,[3],less side effects
same,vaginal breakthrough spotting and bleeding,[3],less vaginal breakthrough spotting and bleeding
same,psychometric scores on items in the domain of energy,[4],generally better scores
same,side effects,[4],less side effects
same,vaginal breakthrough spotting and bleeding,[4],less vaginal breakthrough spotting and bleeding
